This note sets out measurements from patent publication US9174974B2, “Macrocyclic factor VIIa inhibitors” (BRISTOL-MYERS SQUIBB COMPANY, priority 2012, dated 2015).

Assay [1] deals with human FVIIa (Homo sapiens (Human), UniProt P08709). The experiment in a line: FVIIa Ki (37° C.), FVIIa-Xase assay. Type of assay: biochemical.
Assay [2] concerns the target tissue kallikrein (HK1) (Homo sapiens (Human), UniProt P06870). The experiment in a line: Tissue kallikrein-1 (HK1) Ki, fluorogenic substrate assay. It counts as biochemical. To be noted: 37° C.

human FVIIa, sequence (P08709 61-212): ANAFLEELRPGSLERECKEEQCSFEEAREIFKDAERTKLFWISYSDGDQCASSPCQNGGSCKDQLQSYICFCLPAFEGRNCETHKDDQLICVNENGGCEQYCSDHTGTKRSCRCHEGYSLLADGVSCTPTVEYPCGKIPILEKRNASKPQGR
human FVIIa, sequence (P08709 213-466): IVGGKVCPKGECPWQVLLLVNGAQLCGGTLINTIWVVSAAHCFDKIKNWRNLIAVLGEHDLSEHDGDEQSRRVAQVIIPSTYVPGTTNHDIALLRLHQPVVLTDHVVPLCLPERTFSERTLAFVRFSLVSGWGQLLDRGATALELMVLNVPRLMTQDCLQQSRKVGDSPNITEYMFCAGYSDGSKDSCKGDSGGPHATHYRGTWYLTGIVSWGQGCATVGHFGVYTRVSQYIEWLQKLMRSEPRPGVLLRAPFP
human FVIIa, sequence (P13726 33-295 partner): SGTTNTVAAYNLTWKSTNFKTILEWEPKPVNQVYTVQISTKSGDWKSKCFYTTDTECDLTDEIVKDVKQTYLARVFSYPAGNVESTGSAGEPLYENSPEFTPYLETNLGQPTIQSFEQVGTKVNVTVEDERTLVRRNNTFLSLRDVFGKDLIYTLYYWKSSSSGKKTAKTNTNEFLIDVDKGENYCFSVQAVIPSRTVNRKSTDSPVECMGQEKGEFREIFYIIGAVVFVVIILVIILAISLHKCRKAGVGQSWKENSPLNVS
tissue kallikrein (HK1), sequence (P06870 25-262): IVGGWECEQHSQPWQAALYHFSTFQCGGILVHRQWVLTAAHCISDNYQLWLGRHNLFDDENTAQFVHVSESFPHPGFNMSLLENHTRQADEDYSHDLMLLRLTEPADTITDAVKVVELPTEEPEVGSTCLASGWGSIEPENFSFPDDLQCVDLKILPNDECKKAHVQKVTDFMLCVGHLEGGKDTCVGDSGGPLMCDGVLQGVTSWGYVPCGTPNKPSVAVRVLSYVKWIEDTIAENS

In the case of `Cc1cc2ccc1[C@@H](C)COC(=O)Nc1cc(F)c(O[C@H]3CCOC3)c(c1)CN(C)C(=O)C2Nc1ccc2c(N)nccc2c1.O=C(O)C(F)(F)F` (stereo partly drawn) [Example 39, (15R)-2-[(1-Aminoisoquinolin-6-yl)amino]-8-fluoro-4,15,20-trimethyl-7-[(3S)-oxolan-3-yloxy]-13-oxa-4,11-diazatricyclo[14.2.2.1^6,10]henicosa-1(18),6,8,10 (21),16,19-hexaene-3,12-dione; trifluoroacetic acid], the inhibitory constant (Ki) (as a rule, a dissociation constant, usually derived from enzyme kinetics or from competition with a known ligand) is 0.02 nM in assay [1] (read-out: FVIIa Ki, nM 37° C.) and 100 nM in assay [2]. For the same compound, the “Ki(HK1)/Ki(FVIIa)” value in assay [1] (selectivity ratio, tissue kallikrein (HK1) vs FVIIa) amounted to 5000.
